Holding throughout (test): microbe, parasite or virus in culture
Holding throughout (format): cell-based

One experiment deals with SARS-CoV-2. Conditions: read-out: SARS-CoV-2 (Vido) EC50.
For another experiment, the system named is SARS-CoV-2 (Beta). The following applies: Huh7.5 cells, monotherapy.
A further experiment has as its system SARS-CoV-2 (Alpha). Conditions: Huh7.5 cells, monotherapy.
Where [1] appears, read: Severe acute respiratory syndrome coronavirus 2, Huh7.5.
Where [2] appears, read: Severe acute respiratory syndrome coronavirus 2.

Broadly, the EC50 is the concentration giving half of the maximal effect.

Where a name gives a salt, the structure may show the parent alone. Read-outs that look alike come from different tables or passages of the source.

With `Cc1c(O)cccc1C(=O)N[C@@H](CSc1ccccc1)[C@H](O)CN1C[C@H]2CCCC[C@H]2C[C@H]1C(=O)NC(C)(C)C` [Nelfinavir mesylate], the half-maximal effective concentration (EC50) is 1800 nM in the experiment on SARS-CoV-2 (setting [1]), 110 nM in the experiment on SARS-CoV-2 (Beta) (setting [2]) and 500 nM with SARS-CoV-2 (Alpha) (setting [2]).

Regarding `CC(C)C(=O)OC[C@H]1O[C@@H](n2cc/c(=N\O)[nH]c2=O)[C@H](O)[C@@H]1O` [Molnupinavir], the EC50 with SARS-CoV-2 was 90 nM; with SARS-CoV-2 (Beta) it was 110 nM; in the experiment on SARS-CoV-2 (Alpha), 60 nM.

For the compound `CCN(CC)CCOc1ccc2c(c1)C(=O)c1cc(OCCN(CC)CC)ccc1-2` [Tilorone dihydrochloride], the results for the concentration for a half-maximal effect (EC50) with SARS-CoV-2 (setting [1]), in the experiment on SARS-CoV-2 (Beta) (setting [2]) and in the experiment on SARS-CoV-2 (Alpha) (setting [2]) were 930 nM, 190 nM and 250 nM, respectively.

The values above are taken from US20250057819A1, “DRUG COMBINATIONS FOR INHIBITING CORONAVIRUS REPLICATION” (priority 2021, published 2025).
